Reference: article PMC11984924, “Dipeptidic Phosphonates: Potent Inhibitors of Pseudomonas aeruginosa Elastase B Showing Efficacy in a Murine Keratitis Model” (Advanced Science, 2025)
Read-outs that look alike come from different tables or passages of the source.

Key:
[1] = target: T1, LasB (Pseudomonas aeruginosa, UniProt Q02RJ6); assay: In vitro LasB inhibition assay; format: biochemical; conditions: for fold loss in inhibition: bulkier residues
T1 construct: made in house
Experimental: (§1) 3.1 In vitro inhibition assays
LasB was expressed and purified as described previously.[3] In vitro inhibition assays (LasB,
MMPs, TACE). All in vitro inhibition assays were performed as described previously.[10] […]
Fluorescence signals were measured using a CLARIOstar plate reader (BMG
Labtech, Ortenberg, Germany). […]

[2] = target: T2, MMP-1 (Homo sapiens, UniProt P03956); assay: MMP-1 inhibition (off-target); format: biochemical; conditions: read-out: MMP-1 % inhibition at 100 µM
T2 construct: purchased AnaSpec (Fremont, CA, USA)
T2 sequence (P03956 100-469): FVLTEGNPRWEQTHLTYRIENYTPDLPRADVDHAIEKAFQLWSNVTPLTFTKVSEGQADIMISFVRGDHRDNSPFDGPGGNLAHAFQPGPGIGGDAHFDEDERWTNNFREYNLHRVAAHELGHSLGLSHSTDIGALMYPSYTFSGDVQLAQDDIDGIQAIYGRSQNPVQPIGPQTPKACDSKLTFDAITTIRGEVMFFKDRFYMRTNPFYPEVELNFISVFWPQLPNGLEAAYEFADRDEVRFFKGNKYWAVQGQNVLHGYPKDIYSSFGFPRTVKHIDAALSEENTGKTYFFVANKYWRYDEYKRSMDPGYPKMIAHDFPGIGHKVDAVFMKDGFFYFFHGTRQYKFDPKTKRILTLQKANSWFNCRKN
Experimental: as §1
(§2) LasB was expressed and purified as described previously.[3] In vitro inhibition assays (LasB, MMPs, TACE). All in vitro inhibition assays were performed as described previously.[10] TACE inhibitor screening kits were purchased from Sigma-Aldrich (Saint Louis, MO). MMPs along with the SensoLyte 520 Generic MMP Activity Kit Fluorimetric were purchased from AnaSpec (Fremont, CA, USA). The assays were performed according to the guidelines of the respective manufacturer. Fluorescence signals were measured using a CLARIOstar plate reader (BMG Labtech, Ortenberg, Germany). […]
(§3) 3.8 Test against zinc metalloproteases MMP1–3 and TACE (ADAM17), and testing of
(§4) We selected a panel of human off -targets, including three human matrix metalloproteases (MMP-1, -2 and -3) and TACE (ADAM-17). These assays were performed as described previously.[3] The TACE inhibitor screening kit was purchased from Sigma -Aldrich (Saint Louis, MO). MMPs along with the SensoLyte 520 Generic MMP Activity Kit Fluorimetric were purchased from AnaSpec (Fremont, CA, USA). The assays were performed according to the guidelines of the respective manufacturer. Fluorescence signals were measured using a CLARIOstar plate reader (BMG Labtech, Ortenberg, Germany). […]
(§5) Table S6: Percent (%) inhibition of three MMPs (1 –3) and TACE (ADAM17) in presence of selected LasB inhibitors at 100 µM. Results are means and SD of at least two independent experiments. […]
(§6) Compound [% inhibition at [% inhibition at [% inhibition at [% inhibition at 100

[3] = target: T3, MMP-2 (Homo sapiens, UniProt P08253); assay: MMP-2 inhibition (off-target); format: biochemical; conditions: read-out: MMP-2 % inhibition at 100 µM
T3 construct: purchased AnaSpec (Fremont, CA, USA)
T3 sequence (P08253 110-660): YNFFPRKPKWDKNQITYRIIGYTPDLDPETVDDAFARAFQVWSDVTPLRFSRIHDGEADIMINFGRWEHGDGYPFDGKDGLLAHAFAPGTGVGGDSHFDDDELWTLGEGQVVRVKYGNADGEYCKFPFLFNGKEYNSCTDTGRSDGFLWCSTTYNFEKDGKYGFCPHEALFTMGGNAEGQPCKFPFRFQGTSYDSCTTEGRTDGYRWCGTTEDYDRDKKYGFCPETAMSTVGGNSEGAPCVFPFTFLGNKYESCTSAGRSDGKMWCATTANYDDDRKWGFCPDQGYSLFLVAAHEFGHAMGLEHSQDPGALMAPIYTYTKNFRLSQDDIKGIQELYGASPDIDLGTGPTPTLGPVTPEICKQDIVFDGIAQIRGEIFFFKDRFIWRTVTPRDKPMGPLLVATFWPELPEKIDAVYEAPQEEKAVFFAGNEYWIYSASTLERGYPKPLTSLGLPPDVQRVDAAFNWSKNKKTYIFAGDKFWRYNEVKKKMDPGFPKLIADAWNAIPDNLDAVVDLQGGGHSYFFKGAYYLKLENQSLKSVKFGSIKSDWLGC
Experimental: 3.1 In vitro inhibition assays […]
as §2, with “MMPs,” for “LasB was expressed and purified as described previously.[3] In vitro inhibition assays (LasB, MMPs,”
as §3, §4, §5, §6

[4] = target: T4, MMP-3 (Homo sapiens, UniProt P08254); assay: MMP-3 inhibition (off-target); format: biochemical; conditions: read-out: MMP-3 % inhibition at 100 µM
T4 construct: purchased AnaSpec (Fremont, CA, USA)
Experimental: as §1, §2, §3, §4, §5, §6

[5] = target: T5, TACE (ADAM17) (Homo sapiens, UniProt P78536); assay: TACE (ADAM17) inhibition (off-target); format: biochemical; conditions: read-out: TACE (ADAM17) % inhibition at 100 µM
T5 construct: purchased Sigma-Aldrich (Saint Louis, MO)
Experimental: as §1, §2, §3, §4, §5, §6

[6] = test system: HepG2 cells; assay: Cytotoxicity HepG2; format: cell-based; conditions: Homo sapiens, HepG2, read-out: HepG2 % inhibition at 100 µM (metabolic activity), 48 hours
Experimental: (§7) HepG2 (human hepatocellular carcinoma), HEK293 (human embryonal kidney) and A549
(§8) (human lung carcinoma) cells (2x10^5 cells per well) were seeded in 24-well in flat-bottomed
(§9) plates. Culturing of cells, incubations and OD measurements were performed as described
(§10) previously with small modifications.[14] Twenty-four hours after seeding the cells the incubation
(§11) was started by the addition of compounds in a final DMSO concentration of 1%. The living cell
(§12) mass was determined after 48 hours in a PHERAstar microplate reader (BMG labtech,
(§13) Ortenberg, Germany). Two independent measurements were performed for each compound.

[7] = test system: HEK293 cells; assay: Cytotoxicity HEK293; format: cell-based; conditions: Homo sapiens, HEK293, read-out: HEK293 % inhibition at 100 µM (metabolic activity), 48 hours
Experimental: as §7, §8, §9, §10, §11, §12, §13

[8] = test system: A549 cells; assay: Cytotoxicity A549; format: cell-based; conditions: Homo sapiens, A549, read-out: A549 % inhibition at 100 µM (metabolic activity), 48 hours
Experimental: as §7, §8, §9, §10, §11, §12, §13

[9] = test system: Pseudomonas aeruginosa strain PA14; assay: Antibacterial effect on P. aeruginosa PA14 growth; format: cell-based; conditions: PA14, read-out: P. aeruginosa PA14 % inhibition of growth at 100 µM, 18 h, 37 °C
Experimental: Table S14: Food consumption after treatment with (R)-30.
Table S15: Body and organ weights (gram) after treatment with (R)-30.
3.12 Antibacterial effects
As start OD600 of Pseudomonas aeruginosa strain PA14 we used 0.03 in a total volume of 200
µL in lysogeny broth containing the compounds predissolved in DMSO (max. 1%). Final
compound concentrations prepared from serial dilutions ranged from 3.125 to 100 µM (double
values for each concentration). The ODs were determined after addition of the compounds and
again after incubation for 18 h at 37 °C and 200 rpm in 96 well plates (Sarstedt, Nümbrecht,
Germany) using a FLUOStar Omega (BMG labtech, Ortenberg, Germany). Given percent (%)
inhibition values are means of at least two independent determinations. To obtain the values
for a given compound, their ODs were compared to those of DMSO controls. Concerning the […]

T1 sequence (Q02RJ6 198-498): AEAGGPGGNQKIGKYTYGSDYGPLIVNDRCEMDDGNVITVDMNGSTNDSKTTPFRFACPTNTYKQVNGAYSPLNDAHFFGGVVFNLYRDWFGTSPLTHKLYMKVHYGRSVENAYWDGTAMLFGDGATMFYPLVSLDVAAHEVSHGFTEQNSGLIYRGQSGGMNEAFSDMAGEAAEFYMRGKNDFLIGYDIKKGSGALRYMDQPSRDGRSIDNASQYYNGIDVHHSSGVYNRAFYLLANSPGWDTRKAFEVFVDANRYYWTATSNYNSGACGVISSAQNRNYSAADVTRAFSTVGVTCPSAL
T5 sequence (P78536 215-824): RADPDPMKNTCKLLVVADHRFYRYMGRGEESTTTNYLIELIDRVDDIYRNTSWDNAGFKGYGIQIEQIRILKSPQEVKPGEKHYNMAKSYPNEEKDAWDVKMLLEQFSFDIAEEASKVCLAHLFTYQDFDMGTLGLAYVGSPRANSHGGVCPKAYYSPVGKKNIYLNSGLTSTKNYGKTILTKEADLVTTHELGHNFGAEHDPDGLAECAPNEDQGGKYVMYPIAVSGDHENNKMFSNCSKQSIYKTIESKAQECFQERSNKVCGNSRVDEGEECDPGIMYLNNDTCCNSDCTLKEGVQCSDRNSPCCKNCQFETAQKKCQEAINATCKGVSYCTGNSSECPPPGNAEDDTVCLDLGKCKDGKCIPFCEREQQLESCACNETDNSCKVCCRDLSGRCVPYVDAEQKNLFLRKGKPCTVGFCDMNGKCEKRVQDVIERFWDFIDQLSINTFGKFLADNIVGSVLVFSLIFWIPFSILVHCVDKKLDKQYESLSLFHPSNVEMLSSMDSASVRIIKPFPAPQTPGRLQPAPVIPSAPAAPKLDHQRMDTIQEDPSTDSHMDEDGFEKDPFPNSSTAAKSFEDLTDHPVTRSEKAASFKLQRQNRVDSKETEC
T4 sequence (P08254 100-477): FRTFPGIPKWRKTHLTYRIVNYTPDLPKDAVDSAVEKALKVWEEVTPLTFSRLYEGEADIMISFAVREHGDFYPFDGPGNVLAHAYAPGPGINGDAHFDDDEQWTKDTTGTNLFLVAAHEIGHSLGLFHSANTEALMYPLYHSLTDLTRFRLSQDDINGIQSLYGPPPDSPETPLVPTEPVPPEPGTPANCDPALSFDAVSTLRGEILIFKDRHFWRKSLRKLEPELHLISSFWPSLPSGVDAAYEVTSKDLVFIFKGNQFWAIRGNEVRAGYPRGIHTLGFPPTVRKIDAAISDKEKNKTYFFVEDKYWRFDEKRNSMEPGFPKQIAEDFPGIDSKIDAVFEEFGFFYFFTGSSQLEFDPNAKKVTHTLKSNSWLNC

CC(C)CC(C(=O)N[C@@H](CC1CCOCC1)C(=O)Nc1ccc(Cl)c(Cl)c1)P(=O)(O)O (stereo partly shown) [compound 20]
fold loss in inhibition [1]: over 48 fold
IC50 ([1]; read-out: IC50 LasB inhibition): 379 ± 8 nM

CC(C)CC(C(=O)N[C@H](C(=O)Nc1ccc(Oc2ccccc2)cc1)C(C)C)P(=O)(O)O (stereo partly shown) [compound 35]
IC50 ([1]; IC50 LasB inhibition): 8 ± 0.3 nM

CC(C)CC(C(=O)N[C@H](C(=O)Nc1ccc(Cl)c(Cl)c1)C1CC1)P(=O)(O)O (stereo partly shown) [compound 12]
IC50 ([1]; IC50 LasB inhibition): 28.8 ± 0.8 nM

CC(C)CC(C(=O)N[C@H](C(=O)Nc1ccc(Cl)cc1)C(C)C)P(=O)(O)O (stereo partly shown) [compound 27]
IC50 ([1]; IC50 LasB inhibition): 9 ± 0.4 nM

CC(C)C[C@@H](C(=O)N[C@H](C(=O)Nc1ccc(-n2ccnc2)cc1)C(C)C)P(=O)(O)O [(S)‐36]
IC50 ([1]; IC50 LasB inhibition): 417 ± 14 nM

CC(C)CC(C(=O)N[C@@H](CC1CCCCC1)C(=O)Nc1ccc(Cl)c(Cl)c1)P(=O)(O)O (stereo partly shown) [compound 19]
fold loss in inhibition [1]: over 48 fold

CC(C)CC(C(=O)N[C@@H](Cc1ccccc1)C(=O)Nc1ccc(Cl)c(Cl)c1)P(=O)(O)O (stereo partly shown) [compound 23]
IC50 ([1]; read-out: IC50 LasB inhibition): 426 ± 48 nM

COc1ccc(NC(=O)[C@@H](NC(=O)C(CC(C)C)P(=O)(O)O)C(C)C)cc1 (stereo partly shown) [compound 33]
IC50 ([1]; IC50 LasB inhibition): 19.9 ± 0.8 nM

CC(C)CC(C(=O)N[C@@H](CC1CC1)C(=O)Nc1ccc(Cl)c(Cl)c1)P(=O)(O)O (stereo partly shown) [compound 16]
IC50 ([1]; read-out: IC50 LasB inhibition): 27.1 ± 0.9 nM

CC(C)CC(C(=O)Nc1ccc(C(F)(F)F)cc1)P(=O)(O)O (stereo not shown) [compound 5, reference compound]
fold enhancement in IC50 compared to the original hit ([1]; compared to thiol-based hit 4): 18 fold

CC(C)CC(C(=O)N[C@H](C(=O)Nc1ccc(C(F)(F)F)cc1)C(C)C)P(=O)(O)O (stereo partly shown) [compound 29]
IC50 ([1]; IC50 LasB inhibition): 15.2 ± 0.3 nM

CC(C)CC(C(=O)N[C@H](C(=O)Nc1ccc(C(=O)C(F)(F)F)cc1)C(C)C)P(=O)(O)O (stereo partly shown) [compound 31]
IC50 ([1]; IC50 LasB inhibition): 21.7 ± 0.6 nM
inhibition at 100 µM [2]: < 10%
inhibition at 100 µM [3]: < 10%
inhibition at 100 µM [4]: < 10%
inhibition at 100 µM [5]: < 10%
inhibition at 100 µM [6]: < 10%
inhibition at 100 µM [7]: 19 ± 5%
inhibition at 100 µM [8]: < 10%
inhibition at 100 µM [9]: < 10%

COC[C@H](NC(=O)[C@H](CC(C)C)P(=O)(O)O)C(=O)Nc1ccc(Cl)c(Cl)c1 [(S)‐18]
IC50 ([1]; IC50 LasB inhibition): 197 ± 5.4 nM

CC(C)CC(C(=O)N[C@@H](C)C(=O)Nc1ccc(Cl)c(Cl)c1)P(=O)(O)O (stereo partly shown) [compound 8]
fold increase in activity ([1]; alanine versus glycine dipeptide 7): 28 fold
IC50 ([1]; read-out: IC50 LasB inhibition): 61.7 ± 1.6 nM

CC(C)CC(C(=O)N[C@@H](CC(C)C)C(=O)Nc1ccc(Cl)c(Cl)c1)P(=O)(O)O (stereo partly shown) [compound 17]
IC50 ([1]; read-out: IC50 LasB inhibition): 59.4 ± 1.7 nM

CC(=O)c1ccc(NC(=O)[C@@H](NC(=O)[C@H](CC(C)C)P(=O)(O)O)C(C)C)cc1 [(S)‐30]
IC50 ([1]; IC50 LasB inhibition): 129 ± 4 nM

COC[C@H](NC(=O)[C@@H](CC(C)C)P(=O)(O)O)C(=O)Nc1ccc(Cl)c(Cl)c1 [(R)‐18]
IC50 ([1]; IC50 LasB inhibition): 86.7 ± 3.6 nM

CC(C)C[C@H](C(=O)N[C@@H](Cc1cccnc1)C(=O)Nc1ccc(Cl)c(Cl)c1)P(=O)(O)O [(R)‐25]
IC50 ([1]; read-out: IC50 LasB inhibition): 574 ± 16 nM

Cc1ccc(NC(=O)[C@@H](NC(=O)C(CC(C)C)P(=O)(O)O)C(C)C)cc1 (stereo partly shown) [compound 32]
IC50 ([1]; IC50 LasB inhibition): 12.9 ± 0.4 nM

CC[C@H](C)[C@H](NC(=O)C(CC(C)C)P(=O)(O)O)C(=O)Nc1ccc(Cl)c(Cl)c1 (stereo partly shown) [compound 15]
IC50 ([1]; read-out: IC50 LasB inhibition): 13.1 ± 0.5 nM

CC(C)CC(C(=O)N[C@H](C(=O)Nc1ccc(OC(C)C)cc1)C(C)C)P(=O)(O)O (stereo partly shown) [compound 34]
IC50 ([1]; IC50 LasB inhibition): 56.7 ± 2 nM

CC(C)CC(C(=O)N[C@@H](C(=O)Nc1ccc(Cl)c(Cl)c1)C(C)C)P(=O)(O)O (stereo partly shown) [compound 10]
IC50 ([1]; IC50 LasB inhibition): 11.3 ± 0.4 nM

CC(C)CC(C(=O)N[C@H](CC(=O)Nc1ccc(Cl)c(Cl)c1)C(C)C)P(=O)(O)O (stereo partly shown) [compound 11]
IC50 ([1]; IC50 LasB inhibition): 2720 ± 55 nM

CC(C)CC(C(=O)N[C@H](C(=O)Nc1cccc(Cl)c1)C(C)C)P(=O)(O)O (stereo partly shown) [compound 28]
IC50 ([1]; IC50 LasB inhibition): 282 ± 13 nM

CC(C)CC(C(=O)N[C@H](C(=O)Nc1ccc(Cl)c(Cl)c1)c1ccccc1)P(=O)(O)O (stereo partly shown) [compound 22]
IC50 ([1]; read-out: IC50 LasB inhibition): 99.6 ± 2.5 nM

CC(C)CC(C(=O)N[C@H](C(=O)Nc1ccc(N2CCOCC2)cc1)C(C)C)P(=O)(O)O (stereo partly shown) [compound 37]
IC50 ([1]; IC50 LasB inhibition): 83.7 ± 2.1 nM
fold decrease in activity compared to 9 ([1]; compared to 9): 16 fold
